The subject of data set [1] is Mycobacterium tuberculosis. As to the kind of experiment: Antitubercular activity against Mycobacterium tuberculosis H37Rv. The format is functional. As to conditions: for MIC: Mycobacterium tuberculosis, H37Rv.
A short description of data set [2]: Lipophilicity, log P of the compound. The conditions noted are these: octanol/water, logP.

≈ marks a conversion by molar mass, not a printed value.

What is called MIC is the lowest concentration that inhibits growth of the organism. Higher therefore signals a need for much substance. The term logP denotes the decadic logarithm of the partition coefficient of the neutral form, usually between octanol and water. As for `C/C(=N\NC(=O)c1ccncc1)c1cccc(CN(C)C)c1O`, in data set [1], the “log(1/MIC)” value is given as 0.09006 and it took 0.81 µg/mL (≈ 2.59 µM) to inhibit growth (MIC). Moreover, the logP in data set [2] is 1.19.
Take `CCN(CC)Cc1cccc(/C(C)=N/NC(=O)c2ccncc2)c1O`: in data set [1], the “log(1/MIC)” value worked out at 0.09061 and the MIC came out at 0.81 µg/mL (≈ 2.38 µM). In data set [2], this molecule yielded a logP of 2.09.
The matching figures for `CCCCN(CCCC)Cc1cccc(/C(C)=N/NC(=O)c2ccncc2)c1O`: -0.2078, 1.61 µg/mL (≈ 4.06 µM) and 4.05.
Regarding `C/C(=N\NC(=O)c1ccncc1)c1cccc(CN2CCCC2)c1O`, in data set [1], the “log(1/MIC)” value is -0.2108 and the MIC worked out at 1.62 µg/mL (≈ 4.79 µM). In data set [2], this molecule showed a logP of 1.99.
On to `C/C(=N\NC(=O)c1ccncc1)c1cccc(CN2CCOCC2)c1O`, for which, in data set [1], the “log(1/MIC)” value is 0.09122 and inhibition of growth (MIC) required 0.81 µg/mL (≈ 2.29 µM). In data set [2], this molecule came in with a logP of 1.61.
The matching figures for `C/C(=N\NC(=O)c1ccncc1)c1cccc(CN(c2ccccc2)c2ccccc2)c1O`: -0.2064, 1.61 µg/mL (≈ 3.69 µM) and 4.12.
Consider `Cc1cc(C(=O)NN)ccn1`, for which, in data set [1], the “log(1/MIC)” value amounted to 0.1045 and 0.79 µg/mL (≈ 5.23 µM) was the least that counted as inhibitory (MIC). The molecule further gave a logP in data set [2] of -1.67.
Regarding `CCc1cc(C(=O)NN)ccn1`, in data set [1], the “log(1/MIC)” value is recorded as -0.5423 and the MIC is 3.49 µg/mL (≈ 21.1 µM). This molecule came in with a logP in data set [2] of -1.14.
`CCCc1cc(C(=O)NN)ccn1`: in data set [1], the “log(1/MIC)” value is listed as -0.9953 and the lowest concentration to inhibit growth (MIC) was 9.89 µg/mL (≈ 55.2 µM). This molecule also yielded a logP in data set [2] of -0.615.
For `COc1cc(C(=O)NN)ccn1`, in data set [1], the “log(1/MIC)” value is given as -1.408 and inhibition of growth (MIC) required 25.6 µg/mL (≈ 153 µM). The molecule also registered a logP in data set [2] of -2.03.
For the molecule `NNC(=O)c1ccnc(N)c1`, in data set [1], the “log(1/MIC)” value was -0.3436 and the MIC came to 2.21 µg/mL (≈ 14.5 µM). The molecule also yielded a logP in data set [2] of -2.84.
As for `CC(=O)NCc1cc(C(=O)NN)ccn1`, in data set [1], the “log(1/MIC)” value is -1.704 and inhibition of growth (MIC) required 50.6 µg/mL (≈ 243 µM). Besides, the logP in data set [2] is -3.75.
Consider `NNC(=O)c1ccnc(I)c1`, for which, in data set [1], the “log(1/MIC)” value is reported as -1.825 and 66.8 µg/mL (≈ 254 µM) was the least that counted as inhibitory (MIC). The molecule also showed a logP in data set [2] of -1.2.
For `NNC(=O)c1ccnc(Cc2ccccc2)c1`, in that order: -0.942, 8.75 µg/mL (≈ 38.5 µM) and -0.105.
The matching figures for `C=Cc1cc(C(=O)NN)ccn1`: -0.7567, 5.71 µg/mL (≈ 35 µM) and -1.69.

Source of the values: ChEMBL document CHEMBL3091347, “Comparison of Multiple Linear Regressions and Neural Networks based QSAR models for the design of new antitubercular compounds” (Eur J Med Chem, 2013).
